In PubChem BioAssay (NCI):
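Interpolation was linear, between the two tested concentrations surrounding the appropriate level; five concentrations were tested over 48 hours in 96-well plates. Abbreviation: GI50, concentration required for 50% inhibition of growth. TGI marks complete inhibition of growth.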

How the values were obtained:
Assay in all cases: growth of human tumour cells (NCI), 48 h; in the data active means GI50 below about 0.43 µM; inactive means the rest
[1] = tested on: SF-539 CNS
[2] = tested on: HL-60(TB) leukemia
[3] = tested on: HCC-2998 colon
[4] = tested on: CCRF-CEM leukemia
[5] = tested on: MCF7 breast
[6] = tested on: M14 melanoma
[7] = tested on: LOX IMVI melanoma
[8] = tested on: OVCAR-5 ovarian
[9] = tested on: HS 578T breast
[10] = tested on: OVCAR-8 ovarian
[11] = tested on: IGROV1 ovarian
[12] = tested on: SK-OV-3 ovarian
[13] = tested on: TK-10 renal
[14] = tested on: T-47D breast
[15] = tested on: ACHN renal
[16] = tested on: HCT-15 colon
[17] = tested on: 786-0 renal
[18] = tested on: DU-145 prostate
[19] = tested on: U251 CNS
[20] = tested on: A549 NSCLC
[21] = tested on: RPMI-8226 leukemia
[22] = tested on: UACC-257 melanoma
[23] = tested on: SNB-75 CNS
[24] = tested on: NCI/ADR-RES ovarian
[25] = tested on: NCI-H460 lung
[26] = tested on: HCT-116 colon
[27] = tested on: OVCAR-3 ovarian
[28] = tested on: SW-620 colon
[29] = tested on: SK-MEL-28 melanoma

CC12CCC3C(CC=C4CC(O)CCC43C)C1C/C(=C\N1CCCC1)C2=O (configuration not stated)
> 100 µM: TGI [1] | TGI [2] | TGI [3] | TGI [4] | TGI [5] | TGI [6] | TGI [7] | TGI [8] | TGI [9] | TGI [10] | TGI [11] | TGI [12] | TGI [13] | TGI [14] | TGI [15] | TGI [16] | TGI [17] | TGI [18] | TGI [19] | TGI [20] | TGI [21] | TGI [22] | TGI [23] | TGI [24] | TGI [25] | TGI [26] | TGI [27] | TGI [28] | TGI [29]
inactive: GI50 [2] 75.3 µM | GI50 [3] > 100 µM | GI50 [4] 79.3 µM | GI50 [5] > 100 µM | GI50 [6] > 100 µM | GI50 [7] > 100 µM | GI50 [8] > 100 µM | GI50 [9] 60.8 µM | GI50 [10] > 100 µM | GI50 [11] 51.8 µM | GI50 [12] > 100 µM | GI50 [13] > 100 µM | GI50 [14] 30.2 µM | GI50 [15] 91.8 µM | GI50 [16] 87.1 µM | GI50 [17] > 100 µM | GI50 [18] > 100 µM | GI50 [19] > 100 µM | GI50 [20] > 100 µM | GI50 [21] 37 µM | GI50 [22] > 100 µM | GI50 [23] 41.5 µM | GI50 [24] > 100 µM | GI50 [25] > 100 µM | GI50 [26] 69.3 µM | GI50 [27] 42.6 µM | GI50 [28] > 100 µM | GI50 [29] > 100 µM
